# Assay results from patent US20120041030A1, “PYRIDINE THIO DERIVATIVE, AND PHARMACEUTICAL COMPOSITION WHICH CONTAINS SAME AND HAS ANTI-HELICOBACTER PYLORI ACTION” (priority 2009, published 2012).
# Where two headings read alike, the source gives them in different places.
# What was measured:
# Format in all cases: cell-based
# [1] = system: Helicobacter pylori (ATCC 43504); assay: Antibacterial test (MIC) against Helicobacter pylori; settings: for minimum inhibitory concentration (MIC): Helicobacter pylori ATCC 43504; for MIC: Helicobacter pylori
# Procedure: (§1) ATCC43504 which was a standard bacterial strain was used as Helicobacter pylori (H. pylori) to perform the test in vitro in a Columbia agar medium. The bacteria were cultured at 37° C. and a pH of 7.0 for three days. The minimum inhibitory concentration (MIC, μg/ml) was found on the fourth day. Each sample was dissolved in 1% DMSO to use. […] As bacteria for comparison, Gram negative bacteria, for example, E. coli (ATCC 10536 ATCC 25922), Klebsiella pneumonia (ATCC 10031), Proteus vulgaris (ATCC 13315), Pseudomonas aeruginosa (ATCC 9027) and Salmonella typhimurium (ATCC 13311) were used and Gram positive bacteria, for example, Staphylococcus aureus, MRSA (ATCC 33591), Staphylococcus epidermidis (ATCC 12228), Streptococcus pneumonia (ATCC 6301), Mycobacterium ranae (ATCC 110) and Enterococcus faecalis (VRE, ATCC 51575) were used.
# (§2) The values in each table show minimum inhibitory concentrations (MIC, μg/ml).
# [2] = system: Enterococcus faecalis (VRE, ATCC 51575); assay: Antibacterial test (MIC), comparison bacteria; settings: Gram positive; for MIC: read-out: minimum inhibitory concentration (MIC)
# Procedure: as §1, §2
# [3] = system: Pseudomonas aeruginosa (ATCC 9027); assay: Antibacterial test (MIC), comparison bacteria; settings: for minimum inhibitory concentration (MIC): Gram negative; for MIC: ATCC9027, Gram negative, read-out: minimum inhibitory concentration (MIC)
# Procedure: as §1, §2
# [4] = system: Salmonella typhimurium (ATCC 13311); assay: Antibacterial test (MIC), comparison bacteria; settings: Gram negative; for MIC: Salmonella enterica, read-out: minimum inhibitory concentration (MIC)
# Procedure: as §1, §2
# [5] = system: Staphylococcus aureus (MRSA, ATCC 33591); assay: Antibacterial test (MIC), comparison bacteria; settings: Gram positive; for MIC: read-out: minimum inhibitory concentration (MIC)
# Procedure: as §1, §2
# [6] = system: Streptococcus pneumonia (ATCC 6301); assay: Antibacterial test (MIC), comparison bacteria; settings: for minimum inhibitory concentration (MIC): Gram positive; for MIC: Streptococcus pneumoniae, ATCC6301, Gram positive, read-out: minimum inhibitory concentration (MIC)
# Procedure: as §1, §2
# [7] = system: Escherichia coli (ATCC 10536); assay: Antibacterial test (MIC), comparison bacteria; settings: for MIC: ATCC10536, Gram negative, read-out: minimum inhibitory concentration (MIC); for minimum inhibitory concentration (MIC): Gram negative
# Procedure: as §1, §2
# [8] = system: Escherichia coli (ATCC 25922); assay: Antibacterial test (MIC), comparison bacteria; settings: for MIC: ATCC25922, Gram negative, read-out: minimum inhibitory concentration (MIC); for minimum inhibitory concentration (MIC): Gram negative
# Procedure: as §1, §2
# [9] = system: Proteus vulgaris (ATCC 13315); assay: Antibacterial test (MIC), comparison bacteria; settings: for MIC: ATCC13315, Gram negative, read-out: minimum inhibitory concentration (MIC); for minimum inhibitory concentration (MIC): Gram negative
# Procedure: as §1, §2
# [10] = system: Klebsiella pneumonia (ATCC 10031); assay: Antibacterial test (MIC), comparison bacteria; settings: for MIC: Klebsiella pneumoniae, ATCC10031, Gram negative, read-out: minimum inhibitory concentration (MIC); for minimum inhibitory concentration (MIC): Gram negative
# Procedure: as §1, §2
# [11] = system: Mycobacterium ranae (ATCC 110); assay: Antibacterial test (MIC), comparison bacteria; settings: for MIC: ATCC110, Gram positive, read-out: minimum inhibitory concentration (MIC); for minimum inhibitory concentration (MIC): Gram positive
# Procedure: as §1, §2
# [12] = system: Staphylococcus epidermidis (ATCC 12228); assay: Antibacterial test (MIC), comparison bacteria; settings: for MIC: ATCC12228, Gram positive, read-out: minimum inhibitory concentration (MIC); for minimum inhibitory concentration (MIC): Gram positive
# Procedure: as §1, §2
# [13] = Columbia agar medium, 37° C., pH 7.0, cultured three days, MIC found on the fourth day
# [14] = ATCC43504, 72 h, pH 7, Helicobacter pylori ATCC 43504, Columbia agar medium, 37° C., pH 7.0, cultured three days, MIC found on the fourth day, read-out: minimum inhibitory concentration (MIC)
Structure (SMILES),"minimum inhibitory concentration (MIC) [1, 13] [µg/mL]",minimum inhibitory concentration (MIC) [2],minimum inhibitory concentration (MIC) [3],minimum inhibitory concentration (MIC) [4],minimum inhibitory concentration (MIC) [5],minimum inhibitory concentration (MIC) [6],"MIC [1, 14] [µg/mL]",MIC [2] [µg/mL],MIC [7] [µg/mL],MIC [8] [µg/mL],MIC [9] [µg/mL],MIC [3] [µg/mL],MIC [4] [µg/mL],MIC [5] [µg/mL],MIC [6] [µg/mL],MIC [10] [µg/mL],MIC [11] [µg/mL],MIC [12] [µg/mL],minimum inhibitory concentration (MIC) [7],minimum inhibitory concentration (MIC) [8],also measured
"CC1(C)S[C@@H]2[C@H](NC(=O)[C@H](N)c3ccc(O)cc3)C(=O)N2[C@H]1C(=O)O [AMPC, Amoxicillin, reference compound]",0.06,0.3 µg/mL,100< μg/ml,0.3 µg/mL,0.1 µg/mL,0.01 µg/mL,,,,,,,,,,,,,,,
"CC[C@H]1OC(=O)[C@H](C)[C@@H](O[C@H]2C[C@@](C)(OC)[C@@H](O)[C@H](C)O2)[C@H](C)[C@@H](O[C@@H]2O[C@H](C)C[C@H](N(C)C)[C@H]2O)[C@](C)(OC)C[C@@H](C)C(=O)[C@H](C)[C@@H](O)[C@]1(C)O [CAM, Clarithromycin, reference compound]",,,,,,,0.1,0.1,50,50,100,> 100,25,0.1,0.02,,,,,,
"COCCCCSc1ccnc(SCc2nc3ccccc3[nH]2)c1C.Cl [Example 1, 2-[[[4-[(4-methoxy-butyl]thio]-3-methyl-2-pyridyl]thio]methyl]-1H-benzimidazole hydrochloride]",,,,,,,≤ 0.03,> 100,> 100,> 100,> 100,> 100,> 100,> 100,> 100,> 100,> 100,> 100,,,
"CCCOc1ccnc(SCc2nc3ccccc3[nH]2)c1C.Cl [Example 4, 2-[[(4-n-propoxy-3-methyl-2-pyridyl)thio]-methyl]-1H-benzimidazole hydrochloride]",,,,,,,0.3,> 100,> 100,> 100,> 100,> 100,> 100,> 100,> 100,> 100,> 100,> 100,,,
"CSc1ccnc(SCc2nc3ccccc3[nH]2)c1C.Cl [Example 5, 2-[[(4-thiomethyl-3-methyl-2-pyridyl)thio]-methyl]-1H-benzimidazole hydrochloride]",3.0,100< μg/ml,100< μg/ml,100< μg/ml,100< μg/ml,100< μg/ml,,,,,,,,,,,,,100< μg/ml,100< μg/ml,minimum inhibitory concentration (MIC) [10]: 100< μg/ml; minimum inhibitory concentration (MIC) [11]: 100< μg/ml; minimum inhibitory concentration (MIC) [9]: 100< μg/ml; minimum inhibitory concentration (MIC) [12]: 100< μg/ml
"CCCSc1ccnc(SCc2nc3ccccc3[nH]2)c1C.Cl [Example 6, 2-[[(4-thiopropyl-3-methyl-2-pyridyl)thio]-methyl]-1H-benzimidazole hydrochloride]",0.3,100< μg/ml,100< μg/ml,100< μg/ml,100< μg/ml,100< μg/ml,,,,,,,,,,,,,100< μg/ml,100< μg/ml,minimum inhibitory concentration (MIC) [10]: 100< μg/ml; minimum inhibitory concentration (MIC) [11]: 100< μg/ml; minimum inhibitory concentration (MIC) [9]: 100< μg/ml; minimum inhibitory concentration (MIC) [12]: 100< μg/ml
"COCCCCCCCCOc1ccnc(SCc2nc3ccccc3[nH]2)c1C.Cl [Example 14, 2-[[[4-(8-methoxy-1-octyloxy]-3-methyl-2-pyridyl]thio]-methyl]-1H-benzimidazole hydrochloride]",,,,,,,,> 100,> 100,> 100,> 100,> 100,> 100,> 100,> 100,> 100,> 100,> 100,,,

# The next lines start with results.
"minimum inhibitory concentration (MIC) [1, 13] [µg/mL]",minimum inhibitory concentration (MIC) [2],minimum inhibitory concentration (MIC) [3],minimum inhibitory concentration (MIC) [4],minimum inhibitory concentration (MIC) [5],minimum inhibitory concentration (MIC) [6],"MIC [1, 14] [µg/mL]",MIC [2] [µg/mL],MIC [7] [µg/mL],MIC [8] [µg/mL],MIC [9] [µg/mL],MIC [3] [µg/mL],MIC [4] [µg/mL],MIC [5] [µg/mL],MIC [6] [µg/mL],MIC [10] [µg/mL],MIC [11] [µg/mL],MIC [12] [µg/mL],minimum inhibitory concentration (MIC) [7],minimum inhibitory concentration (MIC) [8],Structure (SMILES),also measured
,,,,,,,> 100,> 100,> 100,> 100,> 100,> 100,> 100,> 100,> 100,> 100,> 100,,,"Cc1c(SCCCCCCCCO)ccnc1SCc1nc2ccccc2[nH]1 [Example 2, 2-[[[4-[(8-hydroxy-octyl)thio]-3-methyl-2-pyridyl]thio]methyl]-1H-benzimidazole]",MIC ([1]; summary of Tables 2 and 3): 0.003 µg
,,,,,,0.1,> 100,> 100,> 100,> 100,> 100,> 100,> 100,> 100,> 100,> 100,> 100,,,"COCCCCCCCCSc1ccnc(SCc2nc3ccccc3[nH]2)c1C.Cl [Example 3, 2-[[[4-[(8-methoxy-1-octyl]thio]-3-methyl-2-pyridyl]thio]methyl]-1H-benzimidazole hydrochloride]",
0.3,100< μg/ml,100< μg/ml,100< μg/ml,100< μg/ml,100< μg/ml,,,,,,,,,,,,,100< μg/ml,100< μg/ml,"CCCCCSc1ccnc(SCc2nc3ccccc3[nH]2)c1C [Example 7, 2-[[(4-thiopentyl-3-methyl-2-pyridyl)thio]-methyl]-1H-benzimidazole]",minimum inhibitory concentration (MIC) [10]: 100< μg/ml; minimum inhibitory concentration (MIC) [11]: 100< μg/ml; minimum inhibitory concentration (MIC) [9]: 100< μg/ml; minimum inhibitory concentration (MIC) [12]: 100< μg/ml
0.1,100< μg/ml,100< μg/ml,100< μg/ml,100< μg/ml,100< μg/ml,,,,,,,,,,,,,100< μg/ml,100< μg/ml,Cc1c(SCCOCCOCC(F)(F)F)ccnc1SCc1nc2ccccc2[nH]1.Cl [Example 8],minimum inhibitory concentration (MIC) [10]: 100< μg/ml; minimum inhibitory concentration (MIC) [11]: 100< μg/ml; minimum inhibitory concentration (MIC) [9]: 100< μg/ml; minimum inhibitory concentration (MIC) [12]: 100< μg/ml
0.3,100< μg/ml,100< μg/ml,100< μg/ml,100< μg/ml,100< μg/ml,,,,,,,,,,,,,100< μg/ml,100< μg/ml,Cc1c(OCCOCCOCC(F)(F)F)ccnc1SCc1nc2ccccc2[nH]1.Cl [Example 9],minimum inhibitory concentration (MIC) [10]: 100< μg/ml; minimum inhibitory concentration (MIC) [11]: 100< μg/ml; minimum inhibitory concentration (MIC) [9]: 100< μg/ml; minimum inhibitory concentration (MIC) [12]: 100< μg/ml
,,,,,,0.1,> 100,> 100,> 100,> 100,> 100,> 100,> 100,> 100,> 100,> 100,> 100,,,"CCCCCOc1ccnc(SCc2nc3ccccc3[nH]2)c1C.Cl [Example 10, 2-[[(4-pentyloxy-3-methyl-2-pyridyl)thio]-methyl]-1H-benzimidazole hydrochloride]",
